In patent publication US3934036A, “N-benzenesulfonyl-β-alanine hydrazide useful as an immunosuppressive agent” (priority 1975, dated 1976):
“Also recorded” adds a separate entry of the source.

Key:
[1] = tested on: 7S plaque-forming cells; assay: Antibody production to sheep erythrocytes, 7S plaque-forming cells, comparison with other agents; settings: i.p.; for Spleen weight, mean ± S.E. / 7S PFC/10^6 spleen cells, mean ± S.E. / Mean body weight gain: 8 days; for Spleen weight, mean ± S.E.: control 125 ± 16; for 7S PFC/10^6 spleen cells, mean ± S.E.: control 1045 ± 202; for Mean body weight gain: control +1.0
Protocol: The effect of KH-125 on antibody production in ddY mice was examined by Cunningham and Szenberg's plaque technique (Immunology, 14, 599, 1968) and compared with other agents.
Mice were immunized by intravenous injection of washed sheep erythrocytes (4 × 10^8 cells/mouse). Administration of KH-125 was made orally for 4 consecutive days from the day of antigen injection. 19S Plaque-forming cells (PFC) were counted 4 days after immunization.
In comparative experiment, test agents were administered intraperitoneally for 8 consecutive days from one day before immunization. 7S PFC's were counted 9 days after immunization.

[2] = tested on: Wistar rats; assay: Acute toxicity in rats (LD50); format: in vivo; settings: rats, male vs female
Protocol: (§1) The acute toxicity of KH-125 was studied in both sexes of ddY mice and Wistar rats. The LD50 values were calculated by the method of Litchfield and Wilcoxon (J. Pharmacol. Exptl. Ther., 96, 99, 1949).

[3] = Acute toxicity in rats (LD50); format: in vivo, Wistar rats; settings: rat, in vivo
Protocol: as §1

[4] = tested on: nephrotoxic nephritis; assay: Nephrotoxic nephritis in rats, comparative experiment; format: in vivo, Wistar rats; settings: p.o. once daily, 15 days; protein-uria, fusion index, basement membrane thickening
Protocol: Protein-uria was measured 18 days after nephrotoxin injection, then for electron microscopic examination the nephrotic rats were killed 3 days later. See legend of FIG. 2 for other details.
The effect of KH-125 on nephrotoxic nephritis in Wistar rats was evaluated from the following three points: (1) urinary protein measurements, (2) electron microscopic findings and (3) light microscopic findings. Nephrotic rats were prepared according to Shibata's method. (Ths Saishin-Igaku, 20, 1089, 1965).
In a comparative experiment, test agents were administered once daily: KH-125, 15 days during days 0 - 10 and 15 - 18 (p.o.); 6-mercaptopurine (6-MP), 6 days during days 0 - 5 (p.o.); cyclophosphamide, 11 days during days 0 - 10 (i.p.); and prednisolone, 11 days during days 0 - 10 (i.p.), starting from the day of nephrotoxin-injection. Urinary protein was measured 18 days after the injection of nephrotoxin, and then the animals were sacrificed 3 days later for histopathological examinations.

[5] = tested on: antibody formation to sheep erythrocytes; assay: Screening for ability to suppress antibody formation to sheep erythrocytes in mice; format: in vivo
Protocol: In an attempt to find an immunosuppressive agent having a lowered toxicity, about fifty acid hydrazides, mainly amino acid hydrazide derivatives, were synthesized and screened for their ability to suppress the antibody formation to sheep erythrocytes in mice. […] Further detailed pharmacological and toxicological studies were then performed about KH-125.

[6] = tested on: Wistar rats; assay: Chronic toxicity study, 6 months oral; format: in vivo
Protocol: The chronic toxicity study of KH-125 was carried out in Wistar rats of both sexes. Rats were treated orally with KH-125 for 6 months at the dose levels of 0 (control), 10, 20 and 40 mg/kg/day.

[7] = tested on: adjuvant arthritis; assay: Adjuvant arthritis in rats, prophylactic experiment; settings: for increase in arthritis score / swelling of adjuvant-injected and non-injected feet: once daily for 17 days
[8] = tested on: mice and rats; assay: Carcinogenic tests; format: in vivo
Protocol: (§2) Its toxicological properties were evaluated by subacute and chronic toxicity tests in rats, by teratological studies in rats and rabbits and also by carcinogenic tests in mice and rats.

[9] = tested on: 19S plaque-forming cells; assay: Antibody production to sheep erythrocytes, 19S plaque-forming cells (oral administration); format: in vivo, ddY mice; settings: 4 days; for Mean body weight gain: control +0.8
Excerpt: Mice were immunized by intravenous injection of washed sheep erythrocytes (4 × 10^8 cells/mouse). […] 19S Plaque-forming cells (PFC) were counted 4 days after immunization.

[10] = tested on: rats and rabbits; assay: Teratological studies; format: in vivo
Protocol: as §2

[11] = tested on: nephrotoxic nephritis; assay: Nephrotoxic nephritis in rats, prophylactic experiment; format: in vivo, Wistar rats
Protocol: Protein-uria was measured 18 days after nephrotoxin injection, then for electron microscopic examination the rats were killed 2 days later.
Urinary protein was measured 18 days after the nephrotoxin-injection, and then the nephrotic rats were sacrificed 2 days later for histopathological examinations.

[12] = tested on: rats, rabbits and mice; assay: Subacute and chronic toxicity, teratological and carcinogenic studies (summary); format: in vivo; settings: subacute, chronic
Protocol: as §2

[13] = Acute toxicity in mice (LD50); format: in vivo, ddY mice; settings: mouse, in vivo
Protocol: as §1

[14] = tested on: ddY mice; assay: Acute toxicity in mice (LD50); format: in vivo; settings: mice, male vs female
Protocol: as §1

[15] = established immunosuppressive drugs; cited from earlier work
[16] = 6 months, 10, 20 and 40 mg/kg/day
[17] = oral, electron microscopic findings

C[C@]12C=CC(=O)C=C1CC[C@@H]1[C@@H]2[C@@H](O)C[C@@]2(C)[C@H]1CC[C@]2(O)C(=O)CO [prednisolone]
Spleen weight, mean ± S.E. ([1]; 4 mg/kg/day): 116 ± 19 mg
7S PFC/10^6 spleen cells, mean ± S.E. ([1]; 4 mg/kg/day): 706 ± 178 7SPFC/10^6 spleen cells

NNC(=O)CCNS(=O)(=O)c1ccccc1 [KH-125, N-benzenesulfonyl-β-alanine hydrazide]
sex difference concerning the acute toxicity [2]: No sex difference
LD50 ([3]; ip, female rats): 2580 mg/kg
LD50 ([3]; ip, male rats): 2150 mg/kg
LD50 ([3]; po, female rats): > 4000 mg/kg
LD50 ([3]; po, male rats): > 4000 mg/kg
LD50 ([3]; sc, female rats): > 4000 mg/kg
LD50 ([3]; sc, male rats): > 4000 mg/kg
suppression of nephrotoxic nephritis, compared with 6-mercaptopurine, cyclophosphamide and prednisolone [4]: most effectively suppressed
immunosuppressive activity among about fifty acid hydrazides tested ([5]; mice, antibody formation to sheep erythrocytes): most potent immunosuppressive activity
acute toxicity among the compounds tested ([5]; screening): fairly lower acute toxicity
body weight gain ([6]; 6 months, 40 mg/kg/day): slightly inhibited
erythrocyte count and hemoglobin [6, 16]: dose-dependent decrease
general symptoms, food intake, urinalysis, and fractionation of serum protein [6, 16]: No significant effects
histopathological examinations [6, 16]: No toxic effects which could be attributed to the drug were detected
serum enzyme activities, S-GOT and S-GPT [6, 16]: slight but dose-dependent increases
survival [6, 16]: All rats survived
Spleen weight, mean ± S.E. ([1]; 200 mg/kg/day, p < 0.01): 60 ± 8 mg
7S PFC/10^6 spleen cells, mean ± S.E. ([1]; 200 mg/kg/day, p < 0.01): 233 ± 63 7SPFC/10^6 spleen cells
Mean body weight gain ([1]; 200 mg/kg/day): -4.5 g
suppressive effect on the appearance of 7S PFC, compared with other agents ([1]; 8 consecutive days): higher than that of prednisolone or 6-mercaptopurine; also recorded: less effective than cyclophosphamide
rebound of foot swelling after withdrawal ([7]; after withdrawal): not prominent
survival during the experiment ([7]; oral, as high as 80 mg/kg/day, 17 days): survived throughout the test period
increase in arthritis score ([7]; oral): dose-dependently suppressed
swelling of adjuvant-injected and non-injected feet ([7]; oral): dose-dependently suppressed
suppression of adjuvant arthritis (summary) ([7]; rats): suppress adjuvant arthritis
safety margin (maximal tolerated dose in repeated administration versus effective dose) relative to 6-mercaptopurine ([7]; versus 6-mercaptopurine, adjuvant arthritis): about 3 times
carcinogenic effect [8]: neither teratogenic nor carcinogenic effect
Spleen weight, mean ± S.E. ([9]; 40 mg/kg/day, control 181 ± 8): 135 ± 20 mg
19S PFC/10^6 spleen cells, mean ± S.E. ([9]; 40 mg/kg/day, control 1905 ± 267): 1383 ± 327 19S PFC/10^6 spleen cells
Mean body weight gain ([9]; 40 mg/kg/day): +1.0 g
Spleen weight, mean ± S.E. ([9]; 80 mg/kg/day, control 181 ± 8, p < 0.05): 139 ± 9 mg
19S PFC/10^6 spleen cells, mean ± S.E. ([9]; 80 mg/kg/day, control 1905 ± 267, p < 0.01): 368 ± 124 19S PFC/10^6 spleen cells
Mean body weight gain ([9]; 80 mg/kg/day): -0.8 g
Spleen weight, mean ± S.E. ([9]; 160 mg/kg/day, control 181 ± 8): 164 ± 14 mg
19S PFC/10^6 spleen cells, mean ± S.E. ([9]; 160 mg/kg/day, control 1905 ± 267, p < 0.01): 329 ± 46 19S PFC/10^6 spleen cells
Mean body weight gain ([9]; 160 mg/kg/day): -0.5 g
appearance of 19S PFC ([9]; 40-160 mg/kg/day): dose-dependently suppressed
teratogenic effect [10]: neither teratogenic nor carcinogenic effect
light microscopic findings ([11]; oral): good improvement of nephritis
fusion index of epithelial foot processes [11, 17]: improved
thickening of glomerular basement membrane [11, 17]: suppressed
protein-uria ([11]; oral, twice a day, 18 days after nephrotoxin injection): decreased dose-dependently
suppression of experimental nephrotoxic nephritis (summary) ([11]; rats): suppress adjuvant arthritis as well as experimental nephrotoxic nephritis
toxicity compared with well-known immunosuppressive agents [12]: considerably lower toxicity than well-known immunosuppressive agents
LD50 ([13]; ip, female mice): 1410 mg/kg
LD50 ([13]; ip, male mice): 1230 mg/kg
LD50 ([13]; po, female mice): 1570 mg/kg
LD50 ([13]; po, male mice): 1520 mg/kg
LD50 ([13]; sc, female mice): 1440 mg/kg
LD50 ([13]; sc, male mice): 1150 mg/kg
sex difference concerning the acute toxicity [14]: No sex difference

Sc1ncnc2nc[nH]c12 [6-mercaptopurine, reference compound]
teratogenic and carcinogenic effect [15]: inevitably shared
Spleen weight, mean ± S.E. ([1]; 30 mg/kg/day): 103 ± 12 mg
7S PFC/10^6 spleen cells, mean ± S.E. ([1]; 30 mg/kg/day, p < 0.05): 385 ± 83 7SPFC/10^6 spleen cells
rats died during the experiment ([7]; oral, 30 mg/kg/day, 17 days): Three of 7
increase in arthritis score ([7]; oral): dose-dependently suppressed
swelling of adjuvant-injected and non-injected feet ([7]; oral): dose-dependently suppressed

O=P1(N(CCCl)CCCl)NCCCO1 (stereo not drawn) [cyclophosphamide]
teratogenic and carcinogenic effect [15]: inevitably shared
Spleen weight, mean ± S.E. ([1]; 20 mg/kg/day, p < 0.05): 87 ± 7 mg
7S PFC/10^6 spleen cells, mean ± S.E. ([1]; 20 mg/kg/day, p < 0.01): 61 ± 8 7SPFC/10^6 spleen cells
Mean body weight gain ([1]; 20 mg/kg/day): +0.2 g
